A value given as a limit tells only on which side of the number the result lay.

The target of the assay is T1, human GlyT1c transporter (Homo sapiens, UniProt P48067).
T1 construct: expressed in transfected cells; host or cells: recombinant CHO cells (membranes); the line hGlyT1c_5_CHO is named only for the uptake assay
T1 sequence (P48067 1-706): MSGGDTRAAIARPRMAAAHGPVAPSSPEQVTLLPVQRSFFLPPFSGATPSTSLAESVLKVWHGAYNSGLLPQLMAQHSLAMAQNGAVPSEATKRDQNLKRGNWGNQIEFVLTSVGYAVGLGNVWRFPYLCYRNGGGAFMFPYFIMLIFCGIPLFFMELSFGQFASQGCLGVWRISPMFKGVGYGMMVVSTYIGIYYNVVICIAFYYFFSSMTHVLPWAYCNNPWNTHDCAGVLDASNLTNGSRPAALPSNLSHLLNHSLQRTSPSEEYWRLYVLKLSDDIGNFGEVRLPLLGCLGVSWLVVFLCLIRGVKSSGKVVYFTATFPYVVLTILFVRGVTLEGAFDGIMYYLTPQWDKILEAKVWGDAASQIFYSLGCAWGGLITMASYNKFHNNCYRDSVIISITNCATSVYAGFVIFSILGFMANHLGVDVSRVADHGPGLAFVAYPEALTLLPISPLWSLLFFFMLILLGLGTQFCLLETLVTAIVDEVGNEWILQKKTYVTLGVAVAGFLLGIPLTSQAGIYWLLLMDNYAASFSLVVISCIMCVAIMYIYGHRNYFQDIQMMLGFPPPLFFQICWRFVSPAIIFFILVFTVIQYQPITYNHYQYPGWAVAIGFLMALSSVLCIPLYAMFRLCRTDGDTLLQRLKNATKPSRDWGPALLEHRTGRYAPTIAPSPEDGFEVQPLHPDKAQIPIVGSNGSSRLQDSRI
Kind of assay: Radioligand binding assay using recombinant CHO cell membranes expressing human GlyT1. The conditions noted are these: apparent Ki, read-out: Kiapp (Inhibition of GlyT1 radioligand binding). The procedure:
2. Radioligand Binding Assays Using Recombinant CHO Cell Membranes Expressing Human GlyT1:
Radioligand binding to human GlyT1c transporter-expressing membranes was carried out as described in Mezler et al., Molecular Pharmacology 74:1705-1715, 2008.
Take `Cn1cc(S(=O)(=O)N2CC(c3ccccc3)C(c3cc(C(F)(F)F)ccn3)=N2)cn1` (stereo not shown) [Example 22, 2-{1-[(1-methyl-1H-pyrazol-4-yl)sulfonyl]-4-phenyl-4,5-dihydro-1H-pyrazol-3-yl}-4-(trifluoromethyl)pyridine]: the Ki is not above 10 µM.
With `Cn1cnc(S(=O)(=O)N2CC(c3ccccc3)C(c3ccccn3)=N2)c1` (stereo not shown) [Example 18, 2-{1-[(1-methyl-1H-imidazol-4-yl)sulfonyl]-4-phenyl-4,5-dihydro-1H-pyrazol-3-yl}pyridine] the figure was not above 10 µM.
With `Cn1cc(S(=O)(=O)N2CC(c3ccc(F)cc3)C(c3cccc(Cl)c3)=N2)nn1` (stereo not shown) [Example 6, 4-{[3-(3-chlorophenyl)-4-(4-fluorophenyl)-4,5-dihydro-1H-pyrazol-1-yl]sulfonyl}-1-methyl-1H-1,2,3-triazole] the figure was not above 0.1 µM.
The figure for `Cn1cc(S(=O)(=O)N2CC(c3cccc(Cl)c3)C(c3ccccc3)=N2)cn1` (stereo not shown) [Example 29, 4-{[4-(3-chlorophenyl)-3-phenyl-4,5-dihydro-1H-pyrazol-1-yl]sulfonyl}-1-methyl-1H-pyrazole] is not above 10 µM; for `Cn1cc(S(=O)(=O)N2CC(c3ccccc3)C(c3cccc(OC(F)(F)F)c3)=N2)cn1` (stereo not shown) [Example 14, 1-methyl-4-({4-phenyl-3-[3-(trifluoromethoxy)phenyl]-4,5-dihydro-1H-pyrazol-1-yl}sulfonyl)-1H-pyrazole] it is not above 10 µM.
With `Cn1cc(S(=O)(=O)N2CC(c3ccc(Cl)cc3)C(c3ccccc3)=N2)nn1` (stereo not shown) [Example 27, 4-{[4-(4-chlorophenyl)-3-phenyl-4,5-dihydro-1H-pyrazol-1-yl]sulfonyl}-1-methyl-1H-1,2,3-triazole], the Ki is not above 1 µM.
For the compound `Cn1cc(S(=O)(=O)N2CC(c3ccccc3)C(c3ccccn3)=N2)cn1` (stereo not shown) [Example 19, 2-{1-[(1-methyl-1H-pyrazol-4-yl)sulfonyl]-4-phenyl-4,5-dihydro-1H-pyrazol-3-yl}pyridine], the Ki was not below 10 µM.
The figure for `Cn1cc(S(=O)(=O)N2CC(c3ccccc3)C(c3ccccn3)=N2)nn1` (stereo not shown) [Example 20, 2-{1-[(1-methyl-1H-1,2,3-triazol-4-yl)sulfonyl]-4-phenyl-4,5-dihydro-1H-pyrazol-3-yl}pyridine] is not above 10 µM; for `Cn1cc(S(=O)(=O)N2CC(c3cccc(C#N)c3)C(c3ccccc3)=N2)nn1` (stereo not shown) [Example 28, 3-{1-[(1-methyl-1H-1,2,3-triazol-4-yl)sulfonyl]-3-phenyl-4,5-dihydro-1H-pyrazol-4-yl}benzonitrile] it is not above 1 µM.
Turning to `Cn1cnc(S(=O)(=O)N2CC(c3ccccc3)C(c3ccc(Cl)cc3)=N2)c1` (stereo not shown) [Example 2, 3-(4-chlorophenyl)-1-[(1-methyl-1H-imidazol-4-yl)sulfonyl]-4-phenyl-4,5-dihydro-1H-pyrazole], the Ki is not above 0.1 µM.
The figure for `Cn1cc(S(=O)(=O)N2CC(c3ccccc3)C(c3cccc(OC(F)(F)F)c3)=N2)nn1` (stereo not shown) [Example 15, 1-methyl-4-({4-phenyl-3-[3-(trifluoromethoxy)phenyl]-4,5-dihydro-1H-pyrazol-1-yl}sulfonyl)-1H-1,2,3-triazole] is not above 0.1 µM; for `Cn1cc(S(=O)(=O)N2CC(c3ccc(F)cc3)C(c3cccc(C(F)(F)F)c3)=N2)nn1` (stereo not shown) [Example 1, 4-({4-(4-fluorophenyl)-3-[3-(trifluoromethyl)phenyl]-4,5-dihydro-1H-pyrazol-1-yl}sulfonyl)-1-methyl-1H-1,2,3-triazole] it is not above 10 µM; for `Cn1cc(S(=O)(=O)N2CC(c3ccccc3)C(c3ccc(Cl)cc3)=N2)cn1` (stereo not shown) [Example 11, 4-{[3-(4-chlorophenyl)-4-phenyl-4,5-dihydro-1H-pyrazol-1-yl]sulfonyl}-1-methyl-1H-pyrazole] it is not above 10 µM.
With `Cn1cnc(S(=O)(=O)N2CC(c3ccccc3)C(c3cc(C(F)(F)F)ccn3)=N2)c1` (stereo not shown) [Example 21, 2-{1-[(1-methyl-1H-imidazol-4-yl)sulfonyl]-4-phenyl-4,5-dihydro-1H-pyrazol-3-yl}-4-(trifluoromethyl)pyridine] the figure was not above 10 µM; with `Cn1cc(S(=O)(=O)N2CC(c3ccccc3)C(c3cc(C(F)(F)F)ccn3)=N2)nn1` (stereo not shown) [Example 23, 2-{1-[(1-methyl-1H-1,2,3-triazol-4-yl)sulfonyl]-4-phenyl-4,5-dihydro-1H-pyrazol-3-yl}-4-(trifluoromethyl)pyridine], not above 10 µM.
The figure for `Cn1cc(S(=O)(=O)N2CC(c3ccc(F)cc3)C(c3ccccc3)=N2)nn1` (stereo not shown) [Example 3, 4-{[4-(4-fluorophenyl)-3-phenyl-4,5-dihydro-1H-pyrazol-1-yl]sulfonyl}-1-methyl-1H-1,2,3-triazole] is not above 0.1 µM; for `Cn1cnc(S(=O)(=O)N2CC(c3ccc(F)cc3)C(c3cccc(C(F)(F)F)c3)=N2)c1` (stereo not shown) [Example 8, 4-(4-fluorophenyl)-1-[(1-methyl-1H-imidazol-4-yl)sulfonyl]-3-[3-(trifluoromethyl)phenyl]-4,5-dihydro-1H-pyrazole] it is not above 0.1 µM.
Turning to `Cn1cc(S(=O)(=O)N2CC(c3ccc(Cl)cc3)C(c3ccccc3)=N2)cn1` (stereo not shown) [Example 26, 4-{[4-(4-chlorophenyl)-3-phenyl-4,5-dihydro-1H-pyrazol-1-yl]sulfonyl}-1-methyl-1H-pyrazole], the Ki is not above 10 µM.
`Cn1cc(S(=O)(=O)N2CC(c3ccccc3)C(c3ccc(Cl)cc3)=N2)nn1` (stereo not shown) [Example 12, 4-{[3-(4-chlorophenyl)-4-phenyl-4,5-dihydro-1H-pyrazol-1-yl]sulfonyl}-1-methyl-1H-1,2,3-triazole]: the Ki is not above 0.01 µM.
With `Cn1cc(S(=O)(=O)N2CC(c3ccc(F)cc3)C(c3cccc(Cl)c3)=N2)cn1` (stereo not shown) [Example 7, 4-{[3-(3-chlorophenyl)-4-(4-fluorophenyl)-4,5-dihydro-1H-pyrazol-1-yl]sulfonyl}-1-methyl-1H-pyrazole] the figure was not above 0.01 µM.
The figure for `CC(C)CC1=NN(S(=O)(=O)c2cn(C)cn2)CC1c1ccccc1` (stereo not shown) [Example 17, 1-[(1-methyl-1H-imidazol-4-yl)sulfonyl]-3-(2-methylpropyl)-4-phenyl-4,5-dihydro-1H-pyrazole] is not above 10 µM.
With `Cn1cnc(S(=O)(=O)N2CC(c3ccc(F)cc3)C(c3ccccc3)=N2)c1` (stereo not shown) [Example 4, 4-(4-fluorophenyl)-1-[(1-methyl-1H-imidazol-4-yl)sulfonyl]-3-phenyl-4,5-dihydro-1H-pyrazole] the figure was not above 1 µM; with `Cn1cnc(S(=O)(=O)N2CC(c3ccccc3)C(c3cccc(OC(F)(F)F)c3)=N2)c1` (stereo not shown) [Example 13, 1-[(1-methyl-1H-imidazol-4-yl)sulfonyl]-4-phenyl-3-[3-(trifluoromethoxy)-phenyl]-4,5-dihydro-1H-pyrazole], not above 0.1 µM.
Take `Cn1cnc(S(=O)(=O)N2CC(c3cccc(Cl)c3)C(c3ccccc3)=N2)c1` (stereo not shown) [Example 30, 4-(3-chlorophenyl)-1-[(1-methyl-1H-imidazol-4-yl)sulfonyl]-3-phenyl-4,5-dihydro-1H-pyrazole]: the Ki was not above 0.1 µM.
The figure for `Cn1cnc(S(=O)(=O)N2CC(c3cccc(C#N)c3)C(c3ccccc3)=N2)c1` (stereo not shown) [Example 25, 3-{1-[(1-methyl-1H-imidazol-4-yl)sulfonyl]-3-phenyl-4,5-dihydro-1H-pyrazol-4-yl}benzonitrile] is not above 10 µM.
As for `Cn1cc(S(=O)(=O)N2CC(c3ccc(F)cc3)C(c3cccc(C(F)(F)F)c3)=N2)cn1` (stereo not shown) [Example 10, 4-({4-(4-fluorophenyl)-3-[3-(trifluoromethyl)phenyl]-4,5-dihydro-1H-pyrazol-1-yl}sulfonyl)-1-methyl-1H-pyrazole], the Ki is not above 10 µM.
With `Cn1cnc(S(=O)(=O)N2CC(c3ccc(Cl)cc3)C(c3ccccc3)=N2)c1` (stereo not shown) [Example 24, 4-(4-chlorophenyl)-1-[(1-methyl-1H-imidazol-4-yl)sulfonyl]-3-phenyl-4,5-dihydro-1H-pyrazole] the figure was not above 1 µM.
For `Cn1cnc(S(=O)(=O)N2CC(c3ccc(F)cc3)C(c3cccc(Cl)c3)=N2)c1` (stereo not shown) [Example 5, 3-(3-chlorophenyl)-4-(4-fluorophenyl)-1-[(1-methyl-1H-imidazol-4-yl)sulfonyl]-4,5-dihydro-1H-pyrazole], the Ki is not above 1 µM.
With `Cn1cc(S(=O)(=O)N2CC(c3ccc(F)cc3)C(c3ccccc3)=N2)cn1` (stereo not shown) [Example 9, 4-{[4-(4-fluorophenyl)-3-phenyl-4,5-dihydro-1H-pyrazol-1-yl]sulfonyl}-1-methyl-1H-pyrazole] the figure was not below 10 µM; with `Cn1cnc(S(=O)(=O)N2CC(c3ccccc3)C(c3ccc(Cl)cc3)=N2)c1` (single isomer, unassigned) [Example 16b, 3-(4-chlorophenyl)-1-[(1-methyl-1H-imidazol-4-yl)sulfonyl]-4-phenyl-4,5-dihydro-1H-pyrazole], not above 10 µM; with `Cn1cnc(S(=O)(=O)N2CC(c3ccccc3)C(c3ccc(Cl)cc3)=N2)c1` (single isomer, unassigned) [Example 16a, 3-(4-chlorophenyl)-1-[(1-methyl-1H-imidazol-4-yl)sulfonyl]-4-phenyl-4,5-dihydro-1H-pyrazole], not above 0.01 µM.

For the origin of these results see US9550754B2, “4,5-dihydropyrazole derivatives, pharmaceutical compositions containing them, and their use in therapy” (ABBVIE DEUTSCHLAND GMBH & CO. KG, priority 2014, dated 2017).
